Source: patent US20240383875A1, “Benzimidazole Pyridine Derivatives” (Hoffmann-La Roche Inc., priority 2022, published 2024)

Tests used:
Assay type in all cases: biochemical
SIK1 = SIK1 (Homo sapiens, UniProt P57059); test: Enzymatic activity assay SIK1, RapidFire mass spectrometry (phosphorylation of CHK-peptide); details: RapidFire MS, inhibition of SIK1; read-out: SIK1 RF IC50
Method in brief: (§1)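 Human SIK1/2/3, 5/0.5/1.5 nM; 12.5 mM HEPES pH 7.0, 10 mM Mg acetate, 0.005% BSA. 30 min cpd pre-inc, + CHK-peptide (10 μM soln) + ATP (100 μM soln), 45 min RT. Formic acid stop; RF-MS phospho ratio; IC50.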

SIK2 = SIK2 (Homo sapiens, UniProt Q9H0K1); test: Enzymatic activity assay SIK2, RapidFire mass spectrometry (phosphorylation of CHK-peptide); details: RapidFire MS, inhibition of SIK2; read-out: SIK2 RF IC50
Method in brief: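 Read-out is the summed phospho-species fraction of CHK-peptide by RapidFire mass spectrometry, normalized between DMSO and 1 μM YKL-05-099. The reaction used 0.5 nM SIK2, 100 μM ATP and 10 μM peptide solutions in HEPES pH 7.0/10 mM magnesium acetate for 45 min at ambient temperature.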

SIK3 = SIK3 (Homo sapiens, UniProt Q9Y2K2); test: Enzymatic activity assay SIK3, RapidFire mass spectrometry (phosphorylation of CHK-peptide); details: RapidFire MS, inhibition of SIK3; read-out: SIK3 RF IC50
Method in brief: as §1

Sequence of SIK3 (Q9Y2K2 whole entry): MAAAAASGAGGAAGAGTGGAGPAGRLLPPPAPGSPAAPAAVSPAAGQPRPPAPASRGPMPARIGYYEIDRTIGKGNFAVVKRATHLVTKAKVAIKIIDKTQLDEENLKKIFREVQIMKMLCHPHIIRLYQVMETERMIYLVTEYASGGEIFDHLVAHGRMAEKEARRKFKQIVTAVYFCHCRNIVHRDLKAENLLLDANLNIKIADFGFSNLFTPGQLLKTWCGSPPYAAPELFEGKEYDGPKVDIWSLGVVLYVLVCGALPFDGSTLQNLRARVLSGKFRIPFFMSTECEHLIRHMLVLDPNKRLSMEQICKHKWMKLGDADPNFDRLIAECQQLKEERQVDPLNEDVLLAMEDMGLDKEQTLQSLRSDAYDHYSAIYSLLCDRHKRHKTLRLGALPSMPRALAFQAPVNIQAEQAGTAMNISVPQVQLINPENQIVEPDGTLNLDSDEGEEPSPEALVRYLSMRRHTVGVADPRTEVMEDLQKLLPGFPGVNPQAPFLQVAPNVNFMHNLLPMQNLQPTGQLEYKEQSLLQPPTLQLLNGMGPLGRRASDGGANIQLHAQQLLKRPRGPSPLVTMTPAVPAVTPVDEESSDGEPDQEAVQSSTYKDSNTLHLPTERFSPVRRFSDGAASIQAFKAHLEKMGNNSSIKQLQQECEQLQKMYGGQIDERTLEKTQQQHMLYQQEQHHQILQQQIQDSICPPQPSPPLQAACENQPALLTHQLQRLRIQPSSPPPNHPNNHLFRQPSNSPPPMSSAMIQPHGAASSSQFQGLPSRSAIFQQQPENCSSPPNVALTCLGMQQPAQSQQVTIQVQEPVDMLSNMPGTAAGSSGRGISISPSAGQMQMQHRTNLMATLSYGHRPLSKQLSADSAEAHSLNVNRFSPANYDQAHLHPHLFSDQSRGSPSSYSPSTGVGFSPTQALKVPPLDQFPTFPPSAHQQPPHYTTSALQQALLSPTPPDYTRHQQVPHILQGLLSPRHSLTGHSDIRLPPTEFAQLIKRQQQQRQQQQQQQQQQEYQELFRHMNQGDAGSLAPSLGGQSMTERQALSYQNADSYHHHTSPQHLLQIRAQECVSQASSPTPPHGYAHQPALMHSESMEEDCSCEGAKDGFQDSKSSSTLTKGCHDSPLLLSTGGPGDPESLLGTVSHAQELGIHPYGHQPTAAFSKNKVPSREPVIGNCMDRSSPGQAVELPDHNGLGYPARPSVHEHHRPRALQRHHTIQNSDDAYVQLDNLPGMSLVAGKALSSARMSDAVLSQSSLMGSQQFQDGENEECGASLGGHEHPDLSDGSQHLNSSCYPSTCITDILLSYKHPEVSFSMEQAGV
Sequence of SIK1 (P57059 whole entry): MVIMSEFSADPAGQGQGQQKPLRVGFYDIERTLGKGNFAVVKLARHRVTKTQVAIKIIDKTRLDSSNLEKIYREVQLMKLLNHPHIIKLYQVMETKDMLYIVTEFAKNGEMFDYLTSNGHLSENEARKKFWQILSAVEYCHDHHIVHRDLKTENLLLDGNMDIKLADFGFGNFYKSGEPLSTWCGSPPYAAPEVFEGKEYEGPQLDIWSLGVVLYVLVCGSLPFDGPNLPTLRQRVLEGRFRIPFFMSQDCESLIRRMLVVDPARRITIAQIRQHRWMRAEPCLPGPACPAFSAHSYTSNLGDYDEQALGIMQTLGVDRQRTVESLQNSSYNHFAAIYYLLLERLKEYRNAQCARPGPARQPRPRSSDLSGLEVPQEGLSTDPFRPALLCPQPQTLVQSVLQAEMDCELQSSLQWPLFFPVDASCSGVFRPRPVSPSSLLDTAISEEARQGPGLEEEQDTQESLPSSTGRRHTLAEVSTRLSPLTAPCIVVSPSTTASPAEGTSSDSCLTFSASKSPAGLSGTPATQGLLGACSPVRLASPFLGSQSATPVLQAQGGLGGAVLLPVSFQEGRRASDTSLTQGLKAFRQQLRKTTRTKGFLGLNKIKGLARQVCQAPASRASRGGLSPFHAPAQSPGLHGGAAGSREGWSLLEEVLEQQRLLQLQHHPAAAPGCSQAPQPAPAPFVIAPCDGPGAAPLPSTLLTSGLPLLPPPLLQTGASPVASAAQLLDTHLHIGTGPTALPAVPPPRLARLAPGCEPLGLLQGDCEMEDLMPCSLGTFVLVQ
Sequence of SIK2 (Q9H0K1 whole entry): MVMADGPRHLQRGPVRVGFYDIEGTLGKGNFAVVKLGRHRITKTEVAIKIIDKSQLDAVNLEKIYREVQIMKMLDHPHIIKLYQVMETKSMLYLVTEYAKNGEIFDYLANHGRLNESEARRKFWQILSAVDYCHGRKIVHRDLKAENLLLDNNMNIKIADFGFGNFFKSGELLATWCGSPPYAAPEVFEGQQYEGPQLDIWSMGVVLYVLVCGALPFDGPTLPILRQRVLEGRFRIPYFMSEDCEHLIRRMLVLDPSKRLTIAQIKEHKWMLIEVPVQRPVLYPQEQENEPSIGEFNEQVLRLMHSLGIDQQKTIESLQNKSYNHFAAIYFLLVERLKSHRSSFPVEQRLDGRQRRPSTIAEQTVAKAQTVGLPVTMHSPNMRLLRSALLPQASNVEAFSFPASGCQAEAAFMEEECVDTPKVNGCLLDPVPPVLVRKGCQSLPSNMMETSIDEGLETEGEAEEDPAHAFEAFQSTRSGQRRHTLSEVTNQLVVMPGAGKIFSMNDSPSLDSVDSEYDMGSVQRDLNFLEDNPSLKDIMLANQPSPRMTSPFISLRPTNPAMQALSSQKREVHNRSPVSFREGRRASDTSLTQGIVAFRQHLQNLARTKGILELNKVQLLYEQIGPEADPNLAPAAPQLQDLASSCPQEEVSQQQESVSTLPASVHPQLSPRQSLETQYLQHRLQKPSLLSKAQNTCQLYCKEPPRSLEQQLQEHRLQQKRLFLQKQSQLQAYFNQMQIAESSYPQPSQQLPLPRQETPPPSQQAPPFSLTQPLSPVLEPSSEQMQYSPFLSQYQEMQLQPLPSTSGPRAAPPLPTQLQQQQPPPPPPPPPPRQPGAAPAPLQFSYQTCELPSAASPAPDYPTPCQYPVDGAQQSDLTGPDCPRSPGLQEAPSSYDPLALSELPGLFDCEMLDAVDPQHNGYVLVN

Row | IC50 (SIK1) [nM] | IC50 (SIK2) [nM] | IC50 (SIK3) [nM] | SMILES
1 | 347 | 371 | 1860 | Cc1cc(C#N)nn1-c1nc(-n2cnc3ccc(CN4CCCCC4=O)cc32)ccc1C(C)O (stereo not drawn) [Example 215, 1-[3-(1-Hydroxyethyl)-6-[6-[(2-oxo-1-piperidyl)methyl]benzimidazol-1-yl]-2-pyridyl]-5-methyl-pyrazole-3-carbonitrile]
2 | 895 | 7.3 | 2.1 | CCn1ncc(-c2nc(-n3cnc4cc(Nc5ccc(C)nn5)ccc43)ccc2C(C)O)c1C (stereo not drawn) [Example 271, 1-[2-(1-Ethyl-5-methyl-pyrazol-4-yl)-6-[5-[(6-methylpyridazin-3-yl)amino]benzimidazol-1-yl]-3-pyridyl]ethanol; formic acid]
3 | 179 | 27.7 | 29.7 | Cc1cc(C#N)nn1-c1nc(-n2cnc3cc(OCCN4CCOCC4)ccc32)ccc1C(C)O (stereo not drawn) [Example 68, 1-[3-(1-Hydroxyethyl)-6-[5-(2-morpholinoethoxy)benzimidazol-1-yl]-2-pyridyl]-5-methyl-pyrazole-3-carbonitrile]
4 | 51 | 38.8 | 174 | COc1cc2ncn(-c3ccc(C(C)O)c(-n4nc(C#N)cc4C)n3)c2cc1Nc1ccc(C)nn1 (stereo not drawn) [Example 140, 1-[3-(1-Hydroxyethyl)-6-[5-methoxy-6-[(6-methylpyridazin-3-yl)amino]benzimidazol-1-yl]-2-pyridyl]-5-methyl-pyrazole-3-carbonitrile]
5 | 41 | 0.5 | 0.5 | Cc1ccc(Nc2ccc3c(c2)ncn3-c2ccc(C(C)O)c(-n3nc(OC(F)F)cc3C(F)F)n2)nn1 (stereo not drawn) [Example 404, 1-[2-[3-(difluoromethoxy)-5-(difluoromethyl)pyrazol-1-yl]-6-[5-[(6-methylpyridazin-3-yl)amino]benzimidazol-1-yl]-3-pyridyl]ethanol]
6 | 68 | 3.2 | 1.9 | COCCOc1ccc(Nc2ccc3c(c2)ncn3-c2ccc(C(C)O)c(-n3nc(C#N)cc3C)n2)nn1 (stereo not drawn) [Example 193, 1-[3-(1-Hydroxyethyl)-6-[5-[[6-(2-methoxyethoxy)pyridazin-3-yl]amino]benzimidazol-1-yl]-2-pyridyl]-5-methyl-pyrazole-3-carbonitrile]
7 | 681 | 83.2 | 40.8 | Cc1cc(C#N)nn1-c1nc(-n2cnc3cc(N[C@H]4CNC[C@H]4F)c(F)cc32)ccc1C(C)O (stereo partly drawn) [Example 166, 1-[6-[6-Fluoro-5-[[(3S,4R)-4-fluoropyrrolidin-3-yl]amino]benzimidazol-1-yl]-3-(1-hydroxyethyl)-2-pyridyl]-5-methyl-pyrazole-3-carbonitrile; formic acid]
8 | 273 | 95.4 | 37.2 | Cc1cc(C#N)nn1-c1nc(-n2cnc3cc(Nc4ccc(C5CCCN5C5COC5)nn4)ccc32)ccc1C(C)O (stereo not drawn) [Example 304, 1-[3-(1-hydroxyethyl)-6-[5-[[6-[1-(oxetan-3-yl)pyrrolidin-2-yl]pyridazin-3-yl]amino]benzimidazol-1-yl]-2-pyridyl]-5-methyl-pyrazole-3-carbonitrile]
9 | 15400 | 88.9 | 25.7 | Cc1ccc(Nc2ccc3c(c2)ncn3-c2ccc(C(C)O)c(-n3cc(C#N)c(C)n3)n2)nn1 (stereo not drawn) [Example 182, 1-[3-(1-Hydroxyethyl)-6-[5-[(6-methylpyridazin-3-yl)amino]benzimidazol-1-yl]-2-pyridyl]-3-methyl-pyrazole-4-carbonitrile]
10 | 1120 | 13.5 | 5.6 | Cc1ccc(Nc2ccc3c(c2)ncn3-c2ccc(C(C)O)c(-c3cc(OC(F)F)nnc3C)n2)nn1 (stereo not drawn) [Example 396, 1-[2-[6-(difluoromethoxy)-3-methyl-pyridazin-4-yl]-6-[5-[(6-methylpyridazin-3-yl)amino]benzimidazol-1-yl]-3-pyridyl]ethanol]
11 | 806 | 699 | 1440 | COc1cc2ncn(-c3ccc(CO)c(N4CCOCC4)n3)c2cc1OC [Example 26, (6-(5,6-Dimethoxy-1H-benzo[d]imidazol-1-yl)-2-morpholinopyridin-3-yl)methanol]
